Values belong to the molecule of their own block, whether it stands above or below them.
Molecular target: T1, α4β1 integrin (Homo sapiens, UniProt P05556+P13612)
T1 construct: endogenous in cells; host or cells: Ramos cells
Experiment: Adhesion of calcein-labeled Ramos cells to CS1 (fibronectin) peptide conjugated ovalbumin
Type: cell-based
Details: Ramos cell adhesion to CS1 conjugated ovalbumin
Protocol: A procedure in which a 26-amino acid peptide containing the CS1 sequence of fibronectin with an N-terminal Cys ([…]) was coupled to maleimide activated ovalbumin was used to determine the efficacy of the compounds synthesized. Bovine serum albumin (BSA) and CS1 conjugated ovalbumin were coated onto 96-well polystyrene plates at 0.5 μg/ml in TBS (50 mM TRIS, pH 7.5; 150 mM NaCl) at 4° C. for 16 hours. The plates were washed three times with TBS and blocked with TBS containing 3% BSA at room temperature for 4 hours. Blocked plates were washed three times in binding buffer (TBS; 1 mM MgCl2; 1 mM CaCl2; 1 mM MnCl2) prior to assay. Ramos cells fluorescently labeled with calcein AM were resuspended in binding buffer (10^7 cells/ml) and diluted 1:2 with same buffer with or without compound. 100 μM of compound was added. The cells were added immediately to the wells (2.5×10^5 cells/well) and incubated for 30 minutes at 37° C. Following three washes with binding buffer, adherent cells were lysed and quantitated using a fluorometer. IC50 is defined as the dose required to give 50% inhibition, measured in μM for Tables 2 and 4. The lower the IC50 value and the greater the percentage of inhibition, the more efficient the compound is at prevention of cell adhesion.

[1] = Table 5, dose required to give 50% inhibition
[2] = Table 7, dose required to give 50% inhibition

T1 sequence (P13612 34-1032): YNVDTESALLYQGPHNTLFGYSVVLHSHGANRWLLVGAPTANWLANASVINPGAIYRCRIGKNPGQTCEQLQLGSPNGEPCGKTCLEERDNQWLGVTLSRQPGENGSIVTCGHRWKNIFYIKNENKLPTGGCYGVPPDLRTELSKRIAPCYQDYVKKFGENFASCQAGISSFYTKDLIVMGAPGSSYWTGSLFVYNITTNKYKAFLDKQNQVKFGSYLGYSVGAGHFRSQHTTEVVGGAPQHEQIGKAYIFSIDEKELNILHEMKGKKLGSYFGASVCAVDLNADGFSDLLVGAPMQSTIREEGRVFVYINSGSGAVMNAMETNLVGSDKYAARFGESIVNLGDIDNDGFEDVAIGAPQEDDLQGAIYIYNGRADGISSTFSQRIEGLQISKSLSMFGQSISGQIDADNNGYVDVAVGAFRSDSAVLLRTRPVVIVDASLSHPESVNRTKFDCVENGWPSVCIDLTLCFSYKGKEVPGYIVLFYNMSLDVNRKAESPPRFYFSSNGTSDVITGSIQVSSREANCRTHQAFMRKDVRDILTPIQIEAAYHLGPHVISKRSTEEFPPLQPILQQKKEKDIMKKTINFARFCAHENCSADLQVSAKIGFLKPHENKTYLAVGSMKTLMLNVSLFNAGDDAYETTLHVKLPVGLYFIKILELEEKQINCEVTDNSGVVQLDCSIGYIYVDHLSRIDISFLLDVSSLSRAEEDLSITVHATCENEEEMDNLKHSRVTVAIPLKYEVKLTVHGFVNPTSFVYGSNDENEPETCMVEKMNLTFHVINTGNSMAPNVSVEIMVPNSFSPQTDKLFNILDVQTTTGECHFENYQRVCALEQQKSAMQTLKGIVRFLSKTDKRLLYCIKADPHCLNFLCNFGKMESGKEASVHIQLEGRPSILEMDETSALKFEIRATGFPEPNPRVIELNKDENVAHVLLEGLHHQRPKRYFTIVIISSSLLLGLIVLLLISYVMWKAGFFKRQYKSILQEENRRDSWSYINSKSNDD
T1 sequence (P05556 21-798): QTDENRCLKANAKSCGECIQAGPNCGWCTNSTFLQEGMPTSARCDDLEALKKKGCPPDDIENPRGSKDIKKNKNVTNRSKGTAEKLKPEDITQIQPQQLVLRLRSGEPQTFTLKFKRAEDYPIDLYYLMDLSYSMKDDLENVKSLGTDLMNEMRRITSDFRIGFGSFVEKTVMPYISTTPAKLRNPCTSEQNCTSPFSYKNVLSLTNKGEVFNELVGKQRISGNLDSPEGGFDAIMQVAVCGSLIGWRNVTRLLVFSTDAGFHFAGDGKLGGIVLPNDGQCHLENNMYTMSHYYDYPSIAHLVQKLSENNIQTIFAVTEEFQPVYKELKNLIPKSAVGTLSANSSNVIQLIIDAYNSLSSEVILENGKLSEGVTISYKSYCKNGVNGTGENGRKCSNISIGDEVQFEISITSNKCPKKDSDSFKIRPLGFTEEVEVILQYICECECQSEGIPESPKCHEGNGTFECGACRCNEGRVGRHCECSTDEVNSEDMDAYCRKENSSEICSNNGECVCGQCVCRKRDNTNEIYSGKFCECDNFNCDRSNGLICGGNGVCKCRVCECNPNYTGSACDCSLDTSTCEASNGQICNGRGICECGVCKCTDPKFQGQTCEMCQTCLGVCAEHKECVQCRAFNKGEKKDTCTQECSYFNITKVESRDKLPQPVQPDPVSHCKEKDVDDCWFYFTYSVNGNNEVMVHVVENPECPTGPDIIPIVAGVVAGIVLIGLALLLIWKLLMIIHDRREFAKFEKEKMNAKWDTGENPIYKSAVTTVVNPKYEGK

- IC50 [1]: 0.007 µM
SMILES: Cc1ccc([C@H](CC(=O)O)NC(=O)Nc2c(O)ccn(Cc3c(Cl)cccc3C#N)c2=O)cc1 [(3S)-3-[({[1-(2-chloro-6-cyanobenzyl)-4-hydroxy-2-oxo-1,2-dihydropyridin-3-yl]amino}carbonyl)amino]-3-(4-methylphenyl)propanoic acid]

- IC50 (Table 3, 30 minutes at 37° C.): 0.01 µM
SMILES: O=C(O)C[C@H](NC(=O)Nc1c(O)ccn(Cc2ccccc2Cl)c1=O)c1ccccc1 [(3S)-3-{[({1-[(2-chlorophenyl)methyl]-4-hydroxy-2-oxo-1,2-dihydro-3-pyridinyl}amino)carbonyl]amino}-3-phenylpropanoic acid]

- IC50 [2]: 0.017 µM
SMILES: O=C(O)C[C@H](NC(=O)Nc1c(O)c2c(n(Cc3ccccc3Cl)c1=O)CCC2)c1cccc(-c2ccccc2)c1

- IC50 [1]: 0.003 µM
SMILES: COc1cccc(Cl)c1Cn1ccc(O)c(NC(=O)N[C@@H](CC(=O)O)c2ccc(C)cc2)c1=O [(3S)-3-[({[1-(2-chloro-6-methoxybenzyl)-4-hydroxy-2-oxo-1,2-dihydropyridin-3-yl]amino}carbonyl)amino]-3-(4-methylphenyl)propanoic acid]

- IC50 (Table 6, 30 minutes at 37° C.): 0.002 µM
SMILES: CCOc1cccc([C@H](CC(=O)O)NC(=O)Nc2c(O)c(C)cn(Cc3c(Cl)cccc3OCC)c2=O)c1 [(3S)-3-[({[1-(2-chloro-6-ethoxybenzyl)-4-hydroxy-5-methyl-2-oxo-1,2-dihydropyridin-3-yl]amino}carbonyl)amino]-3-(3-ethoxyphenyl)propanoic acid]

- IC50 [2]: 0.002 µM
SMILES: CCOc1cccc(Cl)c1Cn1c2c(c(O)c(NC(=O)N[C@@H](CC(=O)O)c3ccccc3)c1=O)CCC2 [(3S)-3-[({[1-(2-chloro-6-ethoxybenzyl)-4-hydroxy-2-oxo-2,5,6,7-tetrahydro-1H-cyclopenta[b]pyridin-3-yl]amino}carbonyl)amino]-3-phenylpropanoic acid]

- IC50 [2]: 0.003 µM
SMILES: Cc1cccc(Cl)c1Cn1c2c(c(O)c(NC(=O)N[C@@H](CC(=O)O)c3ccc4c(ccn4C)c3)c1=O)CCC2 [(3S)-3-{[({1-[(2-chloro-6-methylphenyl)methyl]-4-hydroxy-2-oxo-2,5,6,7-tetrahydro-1H-cyclopenta[b]pyridin-3-yl}amino)carbonyl]amino}-3-(1-methyl-1H-indol-5-yl)propanoic acid]

- IC50 [2]: 0.013 µM
SMILES: O=C(O)C[C@H](NC(=O)Nc1c(O)c2c(n(Cc3ccccc3Cl)c1=O)CCC2)c1ccc(OC(F)(F)F)cc1

- IC50 [2]: 0.023 µM
SMILES: CCCc1cn(Cc2c(Cl)cccc2OCC)c(=O)c(NC(=O)N[C@@H](CC(=O)O)c2ccccc2)c1O

- IC50 [2]: 0.038 µM
SMILES: CC(C)Oc1cc([C@H](CC(=O)O)NC(=O)Nc2c(O)c3c(n(Cc4ccccc4Cl)c2=O)CCC3)ccc1Cl [(3S)-3-[({[1-(2-chlorobenzyl)-4-hydroxy-2-oxo-2,5,6,7-tetrahydro-1H-cyclopenta[b]pyridin-3-yl]amino}carbonyl)amino]-3-(4-chloro-3-isopropoxyphenyl)propanoic acid]

- IC50 (Table 3, 30 minutes at 37° C.): 0.03 µM
SMILES: Cc1ccc([C@H](CC(=O)O)NC(=O)Nc2c(O)ccn(Cc3ccccc3F)c2=O)cc1 [(3S)-3-{[({1-[(2-fluorophenyl)methyl]-4-hydroxy-2-oxo-1,2-dihydro-3-pyridinyl}amino)carbonyl]amino}-3-(4-methylphenyl)propanoic acid]

- IC50 (Table 4, 30 minutes at 37° C.): 0.1 µM
SMILES: O=C(O)C[C@H](NC(=O)Nc1cccn(Cc2ccccc2Cl)c1=O)c1ccc(O)cc1 [(3S)-3-{[({1-[(2-chlorophenyl)methyl]-2-oxo-1,2-dihydro-3-pyridinyl}amino)carbonyl]amino}-3-(4-hydroxyphenyl)propanoic acid]

- IC50 [2]: 0.004 µM
SMILES: CCOc1cccc(Cl)c1Cn1c2c(c(O)c(NC(=O)N[C@@H](CC(=O)O)c3cccc(OC(C)C)c3)c1=O)CCC2

- IC50 [1]: 0.5 µM
SMILES: Cc1ccc([C@H](CC(=O)O)NC(=O)Nc2cccn(Cc3cccc(Cl)c3)c2=O)cc1

- IC50 (Table 6, 30 minutes at 37° C.): 0.02 µM
SMILES: CCCCOc1cccc([C@H](CC(=O)O)NC(=O)Nc2c(O)c3c(n(Cc4ccccc4Cl)c2=O)CCC3)c1

- IC50 (Table 3, 30 minutes at 37° C.): 0.02 µM
SMILES: Cc1cccc([C@H](CC(=O)O)NC(=O)Nc2c(O)ccn(Cc3ccccc3Cl)c2=O)c1 [(3S)-3-{[({1-[(2-chlorophenyl)methyl]-4-hydroxy-2-oxo-1,2-dihydro-3-pyridinyl}amino)carbonyl]amino}-3-(3-methylphenyl)propanoic acid]

- IC50 [1]: 0.22 µM
SMILES: O=C(O)C[C@H](NC(=O)Nc1c(O)ccn(Cc2ccccc2Cl)c1=O)c1cc(C(F)(F)F)cc(C(F)(F)F)c1

- IC50 (Table 4, 30 minutes at 37° C.): 0.3 µM
SMILES: COc1cc([C@H](CC(=O)O)NC(=O)Nc2cccn(Cc3cccs3)c2=O)cc(OC)c1OC

- IC50 (Table 6, 30 minutes at 37° C.): 0.02 µM
SMILES: Cc1ccc([C@H](CC(=O)O)NC(=O)Nc2c(O)c(C)cn(Cc3cccc(Cl)c3)c2=O)cc1

- IC50 (Table 3, 30 minutes at 37° C.): 0.01 µM
SMILES: CCc1ccn(Cc2ccccc2Cl)c(=O)c1NC(=O)N[C@@H](CC(=O)O)c1ccc(C)cc1 [(3S)-3-{[({1-[(2-chlorophenyl)methyl]-4-ethyl-2-oxo-1,2-dihydro-3-pyridinyl}amino)carbonyl]amino}-3-(4-methylphenyl)propanoic acid]

- IC50 [2]: 0.006 µM
SMILES: Cc1cn(Cc2ccccc2Cl)c(=O)c(NC(=O)N[C@@H](CC(=O)O)c2ccc3c(c2)CCO3)c1O

- IC50 (Table 4, 30 minutes at 37° C.): 0.4 µM
SMILES: Cc1ccc([C@H](CC(=O)O)NC(=O)Nc2cccn(Cc3ccc(Cl)cc3Cl)c2=O)cc1

- IC50 (Table 3, 30 minutes at 37° C.): 0.015 µM
SMILES: Cc1ccc([C@H](CC(=O)O)NC(=O)Nc2c(Nc3cc(C)no3)ccn(Cc3ccccc3Cl)c2=O)cc1

- IC50 [1]: 0.01 µM
SMILES: O=C(O)C[C@H](NC(=O)Nc1c(O)ccn(Cc2ccccc2Cl)c1=O)c1ccc2c(c1)OCCO2 [(3S)-3-[({[1-(2-chlorobenzyl)-4-hydroxy-2-oxo-1,2-dihydropyridin-3-yl]amino}carbonyl)amino]-3-(2,3-dihydro-1,4-benzodioxin-6-yl)propanoic acid]

- IC50 [2]: 0.004 µM
SMILES: CCCCOc1cccc([C@H](CC(=O)O)NC(=O)Nc2c(O)c(C)cn(Cc3c(Cl)cccc3OCC)c2=O)c1

- IC50 (Table 6, 30 minutes at 37° C.): 1.5 µM
SMILES: Cc1ccc([C@H](CC(=O)O)NC(=O)Nc2c(O)c(C)cn([C@@H](C)c3ccccc3)c2=O)cc1

- IC50 [1]: 0.002 µM
SMILES: COc1ccc([C@H](CC(=O)O)NC(=O)Nc2c(O)ccn(Cc3ccccc3Cl)c2=O)cc1OC [(3S)-3-[({[1-(2-chlorobenzyl)-4-hydroxy-2-oxo-1,2-dihydropyridin-3-yl]amino}carbonyl)amino]-3-(3,4-dimethoxyphenyl)propanoic acid]

- IC50 (Table 4, 30 minutes at 37° C.): 3 µM
SMILES: Cc1ccc([C@H](CC(=O)O)NC(=O)Nc2cccn(Cc3c(C)noc3C)c2=O)cc1

- IC50 [2]: 0.004 µM
SMILES: CCOc1cccc([C@H](CC(=O)O)NC(=O)Nc2c(O)c3c(n(Cc4c(Cl)cccc4OCCOC)c2=O)CCC3)c1

- IC50 (Table 3, 30 minutes at 37° C.): 0.01 µM
SMILES: CCCNc1ccn(Cc2ccccc2Cl)c(=O)c1NC(=O)N[C@@H](CC(=O)O)c1ccc(C)cc1 [(3S)-3-[({[1-[(2-chlorophenyl)methyl]-2-oxo-4-(propylamino)-1,2-dihydro-3-pyridinyl]amino}carbonyl)amino]-3-(4-methylphenyl)propanoic acid]

- IC50 [1]: 0.03 µM
SMILES: Cc1ccc([C@H](CC(=O)O)NC(=O)Nc2c(O)c(C)c(C)n(Cc3c(C)cccc3Cl)c2=O)cc1

- IC50 (Table 4, 30 minutes at 37° C.): 3 µM
SMILES: O=C(O)C[C@H](NC(=O)Nc1cccn(Cc2ccccc2Cl)c1=O)c1c(O)cccc1O

- IC50 [2]: 0.004 µM
SMILES: CCOc1cccc(Cl)c1Cn1c(C)c(CC)c(O)c(NC(=O)N[C@@H](CC(=O)O)c2ccc(C)cc2)c1=O

- IC50 (Table 2, 30 minutes at 37° C.): 0.001 µM
SMILES: Cc1ccccc1NC(=O)Nc1ccc(Cn2cccc(NC(=O)N[C@@H](CC(=O)O)c3ccc4c(c3)OCO4)c2=O)cc1

- IC50 [2]: 0.018 µM
SMILES: O=C(O)C[C@H](NC(=O)Nc1c(O)c2c(n(Cc3ccccc3Cl)c1=O)CCC2)c1ccc(C(F)(F)F)cc1

- IC50 (Table 6, 30 minutes at 37° C.): 0.004 µM
SMILES: CCOc1cccc([C@H](CC(=O)O)NC(=O)Nc2c(O)c3c(n(Cc4c(C)cccc4Cl)c2=O)CCC3)c1 [(3S)-3-[({[1-(2-chloro-6-methylbenzyl)-4-hydroxy-2-oxo-2,5,6,7-tetrahydro-1H-cyclopenta[b]pyridin-3-yl]amino}carbonyl)amino]-3-(3-ethoxyphenyl)propanoic acid]

- IC50 [1]: 0.006 µM
SMILES: Cc1ccc([C@H](CC(=O)O)NC(=O)Nc2c(O)c(C)c(C)n(Cc3ccccc3Cl)c2=O)cc1 [(3S)-3-[({[1-(2-chlorobenzyl)-4-hydroxy-5,6-dimethyl-2-oxo-1,2-dihydropyridin-3-yl]amino}carbonyl)amino]-3-(4-methylphenyl)propanoic acid]

- IC50 [1]: 0.03 µM
SMILES: CCCc1cn(Cc2ccc(Cl)cc2)c(=O)c(NC(=O)N[C@@H](CC(=O)O)c2cccc(OCC)c2)c1O

- IC50 [1]: 0.015 µM
SMILES: COc1ccc([C@H](CC(=O)O)NC(=O)Nc2c(O)ccn(Cc3ccccc3Cl)c2=O)cc1F

- IC50 [2]: 0.02 µM
SMILES: Cc1ccc([C@H](CC(=O)O)NC(=O)Nc2c(O)c(C)cn(Cc3c(Cl)cccc3OCC3CCCC3)c2=O)cc1

- IC50 [2]: > 10 µM
SMILES: Cc1cn(Cc2ccccc2Cl)c(=O)c(NC(=O)N[C@H](c2ccccc2)c2nnn[nH]2)c1O

- IC50 [2]: 0.004 µM
SMILES: Cc1cccc([C@H](CC(=O)O)NC(=O)Nc2c(O)c3c(n(Cc4c(C)cccc4Cl)c2=O)CCC3)c1

- IC50 [2]: 0.03 µM
SMILES: O=C(O)CC(NC(=O)Nc1c(O)c2c(n(Cc3ccccc3Cl)c1=O)CCC2)c1ccc(-c2ccccc2)cc1 (stereo not shown)

- IC50 (Table 6, 30 minutes at 37° C.): 0.105 µM
SMILES: O=C(O)CC(NC(=O)Nc1c(O)ccn(Cc2ccccc2Cl)c1=O)c1ccc2ccccc2n1 (stereo not shown)

- IC50 [2]: 0.022 µM
SMILES: Cc1cn(Cc2ccccc2Cl)c(=O)c(NC(=O)NC(CC(=O)O)c2cccc(N3CCCCC3)c2)c1O (stereo not shown)

- IC50 (Table 6, 30 minutes at 37° C.): 0.012 µM
SMILES: CCOc1cccc([C@H](CC(=O)O)NC(=O)Nc2c(O)c3ccccc3n(Cc3ccccc3Cl)c2=O)c1
